Data from patent publication US20260022142A1, “MACROCYCLIC IMMUNOMODULATORS” (Bristol-Myers Squibb Company, priority 2022, published 2026).
Bridge positions count the residues as written; N and C are the ends. Square brackets hold non-standard residues; d marks the D form. Peptide text beside a SMILES is read from it. * marks the point of attachment. ξ: configuration not given here. Ala(morpholin-4-yl) = N[C@@H](CN1CCOCC1)C(=O)O; Phe(4-COOH) = N[C@@H](Cc1ccc(C(=O)O)cc1)C(=O)O; Bip = N[C@@H](Cc1ccc(-c2ccccc2)cc1)C(=O)O; Phe(3-Me) = Cc1cccc(C[C@H](N)C(=O)O)c1; NH(CH2)12COOH = O=C(O)CCCCCCCCCCCCN*; Val(3-OH) = CC(C)(O)[C@H](N)C(=O)O; Aha = [N-]=[N+]=NCC[C@H](N)C(=O)O; 4Pal = N[C@@H](Cc1ccncc1)C(=O)O; Cha = N[C@@H](CC1CCCCC1)C(=O)O; Cit = NC(=O)NCCC[C@H](N)C(=O)O; Ile(3ξ) = CCC(C)[C@H](N)C(=O)O; Thr(3ξ) = CC(O)[C@H](N)C(=O)O; dDab = NCC[C@@H](N)C(=O)O; Carboxymethyl = O=C(O)C*; Orn = NCCC[C@H](N)C(=O)O; dDap = NC[C@@H](N)C(=O)O; Aun = NCCCCCCCCCCC(=O)O; Dab = NCC[C@H](N)C(=O)O; Dap = NC[C@H](N)C(=O)O; AEEA = NCCOCCOCC(=O)O; ξC = NC(CS)C(=O)O

What follows are compounds tested against T1, PD-1/PD-L1 interaction (PE-labeled human PD-L1-Ig binding to Jurkat cell line over-expressing human PD-1) (Homo sapiens, UniProt Q15116) (assay: Jurkat-PD-1 Cell Binding High-Content Screening Assay (CBA)). Conditions: Jurkat cell line over-expressing human PD-1; PE-labeled PD-L1-Ig 20 nM final; read-out: Jurkat hPD1-PDL1 IC50.
T1 construct: expressed in transfected cells; host or cells: Jurkat
Format: cell-based
Procedure, shortened: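 Binding of fluorescent PD-L1-Ig (phycoerythrin on Ig tag, 20 nM final, 1 h) measured by high-content imaging of fixed, Hoechst-counterstained Jurkat-hPD-1 cells. Compound added 2 h at 37° C beforehand, in DMEM with 10% fetal calf serum.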

T1 sequence (Q15116 25-288): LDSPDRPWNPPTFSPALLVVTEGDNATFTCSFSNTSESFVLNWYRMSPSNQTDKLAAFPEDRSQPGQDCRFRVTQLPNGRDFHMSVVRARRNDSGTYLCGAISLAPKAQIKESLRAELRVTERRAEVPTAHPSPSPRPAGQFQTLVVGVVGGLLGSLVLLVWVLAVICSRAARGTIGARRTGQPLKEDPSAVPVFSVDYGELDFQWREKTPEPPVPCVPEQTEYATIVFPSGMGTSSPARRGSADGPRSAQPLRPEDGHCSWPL

Row | Compound | IC50 [nM]
1 | Cc1cccc(C[C@@H]2NC(=O)[C@H](CC(=O)O)NC(=O)[C@H](Cc3ccc(OCC(=O)O)cc3)NC(=O)[C@H](CCN)NC(=O)CSC[C@@H](C(=O)N[C@@H](CCN)C(=O)NCCOCCOCC(=O)NCCOCCOCC(=O)N[C@@H](CC(=O)NCCCCCCCCCCCCC(=O)O)C(=O)O)NC(=O)[C@H](Cc3cnc[nH]3)NC(=O)[C@H](C(C)(C)O)NC(=O)[C@H](CC3CCCCC3)NC(=O)[C@H](CCN)NC(=O)[C@@H](CC(C)C)NC(=O)[C@H](CCCN)NC(=O)[C@H](Cc3ccc(C(=O)O)cc3)NC(=O)[C@H](Cc3ccc(-c4ccccc4)cc3)NC(=O)[C@H](Cc3ccc(C(=O)O)cc3)NC2=O)c1 [Compound 1255] ({CH2CO}-[Dab]Y(Carboxymethyl)D[Phe(3-Me)][Phe(4-COOH)][Bip][Phe(4-COOH)][Orn][dL][Dab][Cha][Val(3-OH)]HC[Dab][AEEA][AEEA]D(NH(CH2)12COOH)-OH; thioether N-14) | 10.2
2 | Cc1cccc(C[C@@H]2NC(=O)[C@H](CC(=O)O)NC(=O)[C@H](Cc3ccc(OCC(=O)O)cc3)NC(=O)[C@H](CCCNC(=N)N)NC(=O)CSC[C@@H](C(=O)NCCOCCOCC(=O)NCCCCCCCCCCC(=O)O)NC(=O)[C@H](C(C)O)NC(=O)[C@H](C(C)C)NC(=O)[C@H](CC3CCCCC3)NC(=O)[C@H](CCN)NC(=O)[C@@H](CC(C)C)NC(=O)[C@H](CCCN)NC(=O)[C@H](CCCNC(N)=O)NC(=O)[C@H](Cc3ccc(-c4ccccc4)cc3)NC(=O)[C@H](C(C)C)NC2=O)c1 (stereo partly drawn) [Compound 3459] ({CH2CO}-RY(Carboxymethyl)D[Phe(3-Me)]V[Bip][Cit][Orn][dL][Dab][Cha]V[Thr(3ξ)]C[AEEA][Aun]-OH; thioether N-14) | 14.2
3 | CC(C)C[C@H]1NC(=O)[C@H](CCCN)NC(=O)[C@H](C(C)C)NC(=O)[C@H](Cc2ccc(-c3ccccc3)cc2)NC(=O)[C@H](C(C)C)NC(=O)[C@H](Cc2c[nH]c3ccccc23)NC(=O)[C@H](CC(=O)O)NC(=O)[C@H](Cc2ccc(OCC(=O)O)cc2)NC(=O)[C@H](CCCNC(N)=O)NC(=O)CSC[C@@H](C(=O)N[C@@H](CCCCN)C(=O)NCCCCCCCCCCC(=O)O)NC(=O)[C@H](C(C)O)NC(=O)[C@H](C(C)C)NC(=O)[C@H](CC2CCCCC2)NC(=O)[C@H](Cc2cnc[nH]2)NC1=O (stereo partly drawn) [Compound 3148] ({CH2CO}-[Cit]Y(Carboxymethyl)DWV[Bip]V[Orn][dL]H[Cha]V[Thr(3ξ)]CK[Aun]-OH; thioether N-14) | 56.7
4 | Cc1cccc(C[C@@H]2NC(=O)[C@H](CC(=O)O)NC(=O)[C@H](Cc3ccc(OCC(=O)O)cc3)NC(=O)[C@H](CN3CCOCC3)NC(=O)CSC[C@@H](C(=O)N[C@@H](CCN)C(=O)N[C@@H](CCN=[N+]=[N-])C(=O)NCCCCCCCCCCC(=O)O)NC(=O)[C@H](CO)NC(=O)[C@H](C(C)(C)O)NC(=O)[C@H](CC3CCCCC3)NC(=O)[C@H](CCN)NC(=O)[C@@H](CC(C)C)NC(=O)[C@H](CCCN)NC(=O)[C@H](Cc3ccc(OCC(=O)O)cc3)NC(=O)[C@H](Cc3ccc(-c4ccccc4)cc3)NC(=O)[C@H](Cc3ccc(OCC(=O)O)cc3)NC2=O)c1 [Compound 1281] ({CH2CO}-[Ala(morpholin-4-yl)]Y(Carboxymethyl)D[Phe(3-Me)]Y(Carboxymethyl)[Bip]Y(Carboxymethyl)[Orn][dL][Dab][Cha][Val(3-OH)]SC[Dab][Aha][Aun]-OH; thioether N-14) | 4.7

The remaining lines, values ahead:

Row | IC50 [nM] | Compound
5 | 6.7 | CC(C)C[C@H]1NC(=O)[C@H](CCCN)NC(=O)[C@H](Cc2ccc(O)cc2)NC(=O)[C@H](Cc2ccc(-c3ccccc3)cc2)NC(=O)[C@H](C(C)C)NC(=O)[C@H](Cc2c[nH]c3ccccc23)NC(=O)[C@H](CC(=O)O)NC(=O)[C@H](Cc2ccc(OCC(=O)O)cc2)NC(=O)[C@H](Cc2ccncc2)NC(=O)CSC[C@@H](C(=O)N[C@@H](CCN)C(=O)NCCOCCOCC(=O)NCCCCCCCCCCC(=O)O)NC(=O)[C@H](CCCN)NC(=O)[C@H](C(C)C)NC(=O)[C@H](CC2CCCCC2)NC(=O)[C@H](CCN)NC1=O [Compound 2701] ({CH2CO}-[4Pal]Y(Carboxymethyl)DWV[Bip]Y[Orn][dL][Dab][Cha]V[Orn]C[Dab][AEEA][Aun]-OH; thioether N-14)
6 | 48.4 | CC(C)C[C@H]1NC(=O)[C@H](CCCN)NC(=O)[C@H](C(C)C)NC(=O)[C@H](Cc2ccc(-c3ccccc3)cc2)NC(=O)[C@H](C(C)C)NC(=O)[C@H](Cc2c[nH]c3ccccc23)NC(=O)[C@H](CC(=O)O)NC(=O)[C@H](Cc2ccc(OCC(=O)O)cc2)NC(=O)[C@H](CN)NC(=O)CSCC(C(=O)N[C@H](CN)C(=O)NCCCCCCCCCCC(=O)O)NC(=O)[C@H]([C@@H](C)O)NC(=O)[C@H](C(C)C)NC(=O)[C@H](CC2CCCCC2)NC(=O)[C@H](Cc2cnc[nH]2)NC1=O (stereo partly drawn) [Compound 1117] ({CH2CO}-[Dap]Y(Carboxymethyl)DWV[Bip]V[Orn][dL]H[Cha]VT[ξC][dDap][Aun]-OH; thioether N-14)
7 | 13 | CCC(C)[C@@H]1NC(=O)[C@H](Cc2ccc(-c3ccccc3)cc2)NC(=O)[C@H](C(C)C)NC(=O)[C@H](Cc2c[nH]c3ccccc23)NC(=O)[C@H](CC(=O)O)NC(=O)[C@H](Cc2ccc(C(=O)O)cc2)NC(=O)[C@H](Cc2ccncc2)NC(=O)CSC[C@@H](C(=O)N[C@H](CC(N)=O)C(=O)NCCOCCOCC(=O)N[C@@H](CCCN)C(=O)NCCCCCCCCCCC(=O)O)NC(=O)[C@H](CO)NC(=O)[C@H](C(C)C)NC(=O)[C@H](CC2CCCCC2)NC(=O)[C@H](CCN)NC(=O)[C@@H](CC(C)C)NC(=O)[C@H](CCCN)NC1=O (stereo partly drawn) [Compound 3058] ({CH2CO}-[4Pal][Phe(4-COOH)]DWV[Bip][Ile(3ξ)][Orn][dL][Dab][Cha]VSC[dN][AEEA][Orn][Aun]-OH; thioether N-14)
8 | 16.1 | Cc1cccc(C[C@@H]2NC(=O)[C@H](CC(=O)O)NC(=O)[C@H](Cc3ccc(OCC(=O)O)cc3)NC(=O)[C@H](Cc3ccncc3)NC(=O)CSC[C@@H](C(=O)N[C@H](CCN)C(=O)NCCOCCOCC(=O)NCCCCCCCCCCC(=O)O)NC(=O)[C@H](CCC(=O)O)NC(=O)[C@H](C(C)(C)O)NC(=O)[C@H](CC3CCCCC3)NC(=O)[C@H](CCN)NC(=O)[C@@H](CC(C)C)NC(=O)[C@H](Cc3cnc[nH]3)NC(=O)[C@H](Cc3ccc(C(=O)O)cc3)NC(=O)[C@H](Cc3ccc(-c4ccccc4)cc3)NC(=O)[C@H](Cc3ccc(C(=O)O)cc3)NC2=O)c1 [Compound 3740] ({CH2CO}-[4Pal]Y(Carboxymethyl)D[Phe(3-Me)][Phe(4-COOH)][Bip][Phe(4-COOH)]H[dL][Dab][Cha][Val(3-OH)]EC[dDab][AEEA][Aun]-OH; thioether N-14)
9 | 7.8 | Cc1cccc(C[C@@H]2NC(=O)[C@H](CC(=O)O)NC(=O)[C@H](Cc3ccc(OCC(=O)O)cc3)NC(=O)[C@H](CN)NC(=O)CSC[C@@H](C(=O)N[C@@H](CCN)C(=O)NCCOCCOCC(=O)NCCCCCCCCCCC(=O)O)NC(=O)[C@H](CCCN)NC(=O)[C@H](C(C)C)NC(=O)[C@H](CC3CCCCC3)NC(=O)[C@H](CCN)NC(=O)[C@@H](CC(C)C)NC(=O)[C@H](CCCN)NC(=O)[C@H](Cc3ccc(OCC(=O)O)cc3)NC(=O)[C@H](Cc3ccc(-c4ccccc4)cc3)NC(=O)[C@H](Cc3ccc(O)cc3)NC2=O)c1 [Compound 2859] ({CH2CO}-[Dap]Y(Carboxymethyl)D[Phe(3-Me)]Y[Bip]Y(Carboxymethyl)[Orn][dL][Dab][Cha]V[Orn]C[Dab][AEEA][Aun]-OH; thioether N-14)
